# Residues, ends and D or L forms follow the SMILES beside them. *: point of attachment. Myristoyl = CCCCCCCCCCCCCC(=O)*
# What was measured:
# U937 cells = experiment: Inhibition of lysozyme release from U937 cells; format: cell-based, human; details: at 50 μM of test peptide; 100 nM PMA
# Procedure: U937 is a monocyte-like human cell line which was purchased from American Type Culture Collection (ATCC) Rockville, Md. (catalog #CRL-15932). The cells were maintained in medium consisting of RPMI 1640 with glutamine supplemented with 10% heat inactivated fetal bovine serum (Gibco, Carlsbad, Calif.), 50 IU/mL, penicillin, 50 μg/mL streptomycin at 37° C. in an atmosphere containing 5% CO2. U937 cells were washed and resuspended at 2.5×10^6 cells/mL in phenol red free RPMI-1640 medium (Cellgro, Mediatech Inc.). Aliquots of cells in 15 mL plastic tubes were preincubated with indicated concentrations of test peptides (dissolved in PBS, pH 7.0) for 10 min at 37° C. The cells were then stimulated with 100 nM PMA for 1 hour. The cells were then centrifuged at 400×g for 5 min at 4° C. Lysozyme released from U937 cells was measured using spectrophotometric assay as described previously by Ralph et al., 1976. (Ralph P, Moore M A S, and Nilsson K. Lysozyme synthesis by established human and murine histocytic lymphoma cell lines. J. Exp. Med. 143:1528-33, 1976). Briefly. 100 μL of supernatants were placed in a 96-well microtiter plate and mixed with 100 μL of a Micrococcus lysodeikticus (Sigma-Aldrich) suspension (0.3 mg/mL in 0.1 M sodium phosphate buffer, pH 7.0), incubated for […] at room temperature and decrease in absorbance at 450 nm was measured. Chicken egg white lysozyme (EMD Biosciences) was used as a standard.
# [1] = system: MARCKS-related mucus secretion; experiment: Inhibition of MARCKS-related mucus (mucin) secretion, Table 1; format: cell-based; details: at 100 μM of test peptide
# [2] = Solubility in 0.5 N saline; format: physicochemical; details: in 0.5 N Saline at pH 6.5
# HL-60 clone 15 cells = experiment: Inhibition of eosinophil peroxidase (EPO) release from HL-60 clone 15 cells; format: cell-based, human; details: at 50 μM of test peptide; 100 nM PMA 2 hours
# Excerpt: The human promyelocytic cell line (Fischkoff S A, Graded increase in probability of eosinophilic differentiation of HL-60 promyelocytic leukemia cells induced by culture under alkaline conditions. Leuk. Res., 12:679-686, 1988; Rosenberg H F, Ackerman S J, Tenen D G. Human eosinophil cationic protein: molecular cloning of a cytotoxin and helminthotoxin with ribonuclease activity. J. Exp. Med., 170:163-176, 1989), HL-60 clone 15, is eosinophil-like promyelocytic human cell line which was purchased from American Type Culture Collection (ATCC) Rockville, Md. (catalog #CRL-1964). The cells were maintained in medium consisting of RPMI 1640 with glutamine supplemented with 10% heat inactivated fetal bovine serum (Gibco, Carlsbad, Calif.), 50 IU/mL penicillin, 50 μg/mL streptomycin, and 25 mM HEPES buffer, pH 7.8 at 37° C. in an atmosphere containing 5% CO2. Final differentiation of an eosinophil-like phenotype was initiated by culturing the cells at 5×10^5 cells/mL in the above medium containing 0.5 mM butyric acid (Sigma-Aldrich) for 5 days as previously described by Tiffany H L, Li F, and Rosenberg H F, Hyperglycosylation of eosinophil ribonuclease in a promyelocytic leukemia cell line and in differentiated peripheral blood progenitor cells J. Leukoc. Biol. 58: 49-54, 1995; and by Tiffany H L, Alkhatib G, Combadiere C, Berger E A, and Murphy P M., CC Chemokine receptors are differentially regulated by IL-5 during maturation of eosinophilic HL-60 cells. J. Immunol. 160:1385-1392, 1998. The cells were washed and resuspended at 2.5×10^6 per mL in phenol free RPMI-1640 (Cellgro; Mediatech Inc.). Aliquots of cells in 15 mL plastic tubes were preincubated with indicated concentration of test peptide (dissolved in PBS, pH 7.0) for 10 minutes followed by treatment of the cells with 100 nM PMA for 2 hours. The reaction was terminated by placing the tubes on ice and centrifugation of cells at 400 g for 5 min at 4° C. The eosinophil peroxidase (EPO) activity released by HL-60 clone 15 cells was assayed using TMB according to a previously established technique Paige et al (see above) and by Lacy P, Mahmudi-Azer S, Bablitz B, Hagen S C, Velazquez J R, Man S F, Moqbel R. Rapid mobilization of intracellularly stored RANTES in response to interferon-gamma in human eosinophils. Blood 94:23-32, 1999. Briefly, add 50 μL aliquots of the supernatant to 96-well microtiter plate followed by addition of 100 μL of the tetramethylbenzidine (TMB) substrate solution and incubate at room temperature for 15 minutes. The reaction was terminated by addition of 50 μL of 1.0 M sulfuric acid and absorbance was read at 450 nm in a spectrophotometric microplate reader (Molecular Devices, Sunnyvale, Calif.). The amount of secreted EPO was expressed as percentage of total content using the amount obtained in the same number of triton X-100-lysed cells.
# Because standard EPO from HL-60 clone 15 cells was not available to use for quantification, we measured both released and intracellular (from lysed cells) levels of EPO, and expressed the released EPO as a percentage of total (intracellular and released) for each. To measure intracellular EPO in HL-60 clone 15 cells, appropriate aliquots of 0.1% triton X-100-lysed cells were taken for quantification of intracellular EPO as described above. All data are expressed as percentage of control to minimize variability between cultures.
# human neutrophils = experiment: Human neutrophil chemotactic migration assay; format: cell-based; details: test peptide 50 μM; for Neutrophil Migration (% Inhibition), LTB4: LTB4 100 nM; for Neutrophil Migration (% Inhibition), LTB4 / Neutrophil Migration (% Inhibition), fMLP: 0 = inactive; for Neutrophil Migration (% Inhibition), PAF: PAF 100 nM; for Neutrophil Migration (% Inhibition), fMLP: fMLP 100 nM
# Procedure: Human neutrophils were isolated from heparinized whole blood collected from healthy adult donors via cephalic venipuncture by a slightly modified method as described by Akasaki et al., 1999 (Akasaki T, Koga H, and Sumimoto H., Phosphoinositide 3-kinase-dependent and -independent activation of the small GTPase Rac2 in human neutrophils, J. Biol. Chem. 274:18055-18059, 1999). The blood was mixed with dextran (final concentration 1.4% dextran) and then allowed to settle for 60 minutes, after which time the leukocyte rich plasma was collected and layered onto 5 mL of Ficoll-Paque PLUS in 15 ml, conical tubes. The plasma was centrifuged at 1800 rpm for 20 minutes at room temperature. The residual erythrocytes were lysed utilizing a hypotonic saline and the remaining neutrophils were re-suspended in Hank's balanced salt solution containing 20 mM HEPES and 8.9 mM sodium bicarbonate without calcium or magnesium (HBSS), yielding neutrophils that were greater than 98% pure and greater than 99% viable.
# Neutrophil migration assay was performed according to the method described by Frevert C W, Wong V A, Goodman R B, Goodwin R, and Martin T R., Rapid fluorescence-based measurement of neutrophil migration in vitro, J. Immunol. Methods, 213:41-52, 1998. Human neutrophils were labeled with the fluorescent dye calcein for 30 minutes at room temperature. Cells were then washed and resuspended in a migration buffer containing HBSS with 2% FCS. Cells were treated with buffer alone or with the indicated test peptide (50 μM) for 30 minutes at 37° C. Treated cells (1×10^4 cells) were then placed on the upper side of a ChemoTx® chemotaxis plate (Neuroprobe, Gaithersburg, Md.) membrane (2 μm pore size). Lower wells of the plate were filled with migration buffer alone or with buffer containing fMLP (100 nM), LTB4 (100 nM), or PAF (100 nM). Wells containing 1×10^4 labeled cells were used as standards to calculate migration percentage. Cells were allowed to migrate for 1 hour at 37° C. After incubation, cells on the top of the filter were washed away with PBS. Followed by this, 0.5 mM EDTA was added to the top of the filter for 5 min to detach adherent cells and the membrane was again washed. The plate was then centrifuged at 1000 rpm for 1 min. The filter was removed and the fluorescence was measured in the lower wells (485 nm excitation, 530 nm emission wavelength) using an fMax fluorescence plate reader (Molecular Devices, Sunnyvale, Calif.). Percent migration was determined by dividing the fluorescence of each well by the fluorescence of the standard wells containing 1×10^4 labeled cells. A lesser number of migrated neutrophils in the bottom compartment is indicative of the test peptide being an inhibitor of inflammation.
SMILES,% Inhibition Lysozyme (U937 cells),% Inhibition Mucin [1],solubility [2],% Inhibition EPO (HL-60 clone 15 cells),"Neutrophil Migration (% Inhibition), LTB4 (human neutrophils)","Neutrophil Migration (% Inhibition), PAF (human neutrophils)","Neutrophil Migration (% Inhibition), fMLP (human neutrophils)"
CCCCCCCCCCCCCC(=O)NCC(=O)N[C@@H](C)C(=O)N[C@@H](CCC(N)=O)C(=O)N[C@@H](Cc1ccccc1)C(=O)N[C@@H](CO)C(=O)N[C@@H](CCCCN)C(=O)N[C@H](C(=O)N[C@@H](C)C(=O)N[C@@H](C)C(=O)N[C@@H](CCCCN)C(=O)NCC(=O)N[C@@H](CCC(=O)O)C(=O)N[C@@H](C)C(=O)N[C@@H](C)C(=O)N[C@@H](C)C(=O)N[C@@H](CCC(=O)O)C(=O)N[C@@H](CCCNC(=N)N)C(=O)N1CCC[C@H]1C(=O)NCC(=O)N[C@@H](CCC(=O)O)C(=O)O)[C@@H](C)O [SEQ ID NO: 5] (Myristoyl-GAQFSKTAAKGEAAAERPGE-OH; C-terminus assumed),99%,77%,< 5000 µg/mL,33.6%,76.8%,88.4%,69.1%
"CCCCCCCCCCCCCC(=O)NCC(=O)N[C@@H](C)C(=O)N[C@@H](CCC(N)=O)C(=O)N[C@@H](Cc1ccccc1)C(=O)N[C@@H](CO)C(=O)N[C@@H](CCCCN)C(=O)N[C@H](C(=O)N[C@@H](C)C(=O)N[C@@H](C)C(=O)N[C@@H](CCCCN)C(=O)NCC(=O)N[C@@H](CCC(=O)O)C(=O)N[C@@H](C)C(=O)N[C@@H](C)C(=O)N[C@@H](C)C(=O)N[C@@H](CCC(=O)O)C(=O)O)[C@@H](C)O [SEQ ID NO: 9, N-myristoyl-GAQFSKTAAKGEAAAE] (Myristoyl-GAQFSKTAAKGEAAAE-OH; C-terminus assumed)",99%,68%,> 2000 µg/mL,30.3%,90.3%,72.7%,84.8%

# — patent US8501911B2, “Methods of reducing inflammation and mucus hypersecretion” (Biomarck Pharmaceuticals, Ltd, priority 1999, dated 2013)
